B1: FASL: cell death-inducing ligand, death receptor ligand (protein, UniProt P48023 130-281, looked up)
Tumor necrosis factor ligand …: QIGHPSPPPEKKELRKVAHLTGKSNSRSMPLEWEDTYGIVLLSGVKYKKGGLVINETGLYFVYSKVYFRGQSCNNLPLSHKVYMRNSKYPQDLVMMEGKMMSYCTTGQMWARSSYLGAVFNLTSADHLYVNVSELSLVNFEESQTFFGLYKL

Assays:
MPM cell lines = assay: Combination drug screen with rTRAIL as anchor drug; type: cell-based, Human; conditions: otherwise resistant cells; delta AUC synergy metric
Experimental: FIG. 7A is a volcano plot showing drug-genome interactions when rTRAIL was used as an anchor drug in combination with the library of 94 single agent compounds. Synergy was described using delta AUC metric. FIGS. 7B & 7C are graphs showing the effect of rTRAIL on cell viability of MPM cells in the presence of LCL161. TRAIL resistant MPM cells were treated with either 0-1000 ng/ml of TRAIL alone or a combination of 5 μM LCL161 and 0-1000 ng/ml of TRAIL for 24 hours and cell death was quantified by Annexin V/DAPI assay. FIG. 7D is a graph showing the effect of rTRAIL on cell viability of cells in the presence of the IAP inhibitor, LCL161. BAP1-transduced or BAP1 C91A-transduced H226 cells were treated either with 0-1000 ng/ml of TRAIL alone or combination of 5 μM LCL161 and 0-1000 ng/ml of TRAIL for 24 hours and cell death was quantified by Annexin V/DAPI assay.
Manual “single dose” combination screening was undertaken using 96 well formats. Cells were plated on day 1 in previously optimized seeding densities in 180 μl if media. On day 2 20 μl of a 10× concentration of […] was added. Cells were then allowed to grow for 72 hrs or 6 days and fixed at the end of the assay. Drug wells were compared to DMSO treated control wells.
Single agent high throughput 5 point viability screening was undertaken in 384 well formats using robotic liquid handling with fixing with 4% paraformaldehyde and staining for viability with Syto60 nucleic acid dye (Invitrogen) (see below).
A binary event matrix was compiled for the cell lines in the mesothelioma screen by aggregating copy number and exome data and this was used as input classifiers for genomic correlation. Data from this therapeutic screen was then analysed using a Multivariate Analysis of Variance (MANOVA) to annotate the sensitizing effect of genotype on dose response.

NCI-H226 = assay: Annexin V/DAPI cell death assay, H226 parental and BAP1-transduced lines; type: cell-based, Human; conditions: 100 ng/ml, 24 hours; untransduced, BAP1-expressing and catalytically dead BAP1-expressing H226
Experimental: FIG. 5A is an immunoblot for BAP1 protein in BAP1 null mesothelioma lines following transfection with empty vector and BAP1 expression vector. […] FIG. 5C is a graph showing the effect of rTRAIL on cell viability of an untransduced H226 cell line, a BAP1 (transduced) cell line, and a H226 cell line with the NLS deleted.
Untransduced BAP1-negative H226 cells, BAP1-expressing and catalytically dead BAP1-expressing H226 cells were treated with 100 ng/ml of FASL, TRAIL and TNF-alpha for 24 hours and cell death was quantified by Annexin V/DAPI assay. *p<0.05 indicating significant difference between untransduced H226 cells H226 BAP1 expressing cells. NS no significant difference between untransduced H226 cells and BAP1 C91A transduced cells. #p<0.05 indicating significant difference between untransduced H226 cells and BAP1 C91A transduced cells.
Adherent mesothelioma cell lines were plated in a 96 well plate at approximately 10000 cells per well. Cells were plated and given 1 day to adhere at which time drug was added. After 48 hrs media, including floating cells, was collected from each well. The remaining adherent cells were washed with PBS and mobilised with 0.05% trypsin in EDTA. All cells were collected into tubes containing the previously removed media and pelleted by centrifugation (300 g, 5 minutes). Cells were then re-suspended in 1× Annexin V binding buffer with 10 μl/1 ml concentration of Annexin V-647 antibody (Invitrogen) and incubated for 15 minutes at room temperature. DAPI ([…]) was then added to each sample before flow cytometry analysis as below. Annexin V−/DAPI− cells were judged to be viable, AnnexinV+/DAPI− cells were considered to be undergoing apoptosis (early apoptotic phase), and Annexin V+/DAPI+ cells were considered late apoptotic or necrotic, and recorded as dead.

Row | Molecule | effect on DRL-induced apoptosis in combination with rTRAIL (MPM cell lines) | sensitivity of H226 cells to cell death-inducing ligand, dependence on BAP1 catalytic domain (NCI-H226)
1 | CN[C@@H](C)C(=O)N[C@H](C(=O)N1CCC[C@H]1c1nc(C(=O)c2ccc(F)cc2)cs1)C1CCCCC1 [LCL161] | increase the efficacy of DRL-induced apoptosis | 
2 | COc1ccc(C(=O)CC2(O)C(=O)Nc3c(Cl)ccc(Cl)c32)cc1 (centres unmarked) [YK-4279] | increase the efficacy of DRL-induced apoptosis | 
3 | CNC(=O)c1cc(Oc2ccc(NC(=O)Nc3ccc(Cl)c(C(F)(F)F)c3)cc2)ccn1 [sorafenib] | increase the efficacy of DRL-induced apoptosis | 
4 | TNFα |  | regulates the sensitivity
5 | B1 |  | regulates the sensitivity

— US11789012B2, “Cell death biomarker” (UCL Business PLC, priority 2016, dated 2023)
